In patent EP0401096A1, “Agents and complexes of ion Mg++ facilitating absorption of magnesium in a human or animal organism, and pharmaceutical or dietetic compositions useful for the administration of magnesium in a human or animal organism” (LABORATOIRES LUCIEN, priority 1989, dated 1990):

What was measured:
[1] = Magnesium balance in rats after oral administration (experiment coded 1.33, 4 lots of 18); format: in vivo, rat; conditions: mean (M), experiment 1.33
Excerpt: D'autres expérimentations basées sur des protocoles comparables ont confirmé les résultats ci-dessus. Elles ne feront pas toutefois l'objet d'une présentation en détails. Seuls les résultats de l'expérimentation suivante mettant en jeu l'acide malique et l'acide citrique seront présentés de façon globale dans les tableaux 10 et 11 ci-après.
La nouvelle expérimentation (codée 1.33) a été réalisée sur 4 lots de 18 animaux chacun, les lots I, II et III recevant les mêmes traitements que ceux administrés aux lots correspondants dans le cadre de l'expérimentation précédente et le lot IV recevant l'association "MgCl2 + acide citrique" à la dose de 38,88 mg de Mg2+/kg sous forme de MgCl2 + 1345 mg d'acide citrique/kg, sous un volume de 40 ml/kg d'eau déminéralisée (pH ajusté à 5), ce qui correspond à une concentration en magnésium CMg = 0,04 mol.dm-3 et à une concentration de citrate CTA = 0,16 mol.dm-3. Tableau 10

[2] = Magnesium balance in rats after oral administration (first experiment, 3 lots of 20); format: in vivo, rat; conditions: mean (M), oral 38,88 mg de Mg2+/kg
Method: L'essai porte sur 60 rats mâles S.P.F. de souche "CD", d'un poids moyen de 60 à 80 g à leur arrivée. Ils sont maintenus en animalerie conventionnelle dans des conditions identiques de température (21°C +/- 1°C), d'hygrométrie (40 à 70 %) et de luminosité (12h/24).
Dès leur arrivée, les animaux sont placés en cage à métabolisme et reçoivent un aliment contenant 570 mg de Mg2+/kg : concentration nécessaire et suffisante pour maintenir chez l'animal une magnésémie normale.
4 jours après leur arrivée, au temps "t-16h" de l'essai, soit 16 h avant l'administration des traitements (temps "t"), les animaux sont pesés, mis à jeun et le volume d'eau déminéralisée mis à leur disposition est exactement mesuré.
Au temps "t-1h" soit 1 h avant l'administration des traitements, l'eau de boisson est retirée. Elle est redistribuée 30 minutes après cette administration, le volume étant exactement mesuré.
Au temps "t+24h" les animaux sont sacrifiés par dislocation cervicale et le contenu de la vessie et des intestins est prélevé.
Les animaux sont répartis en 3 lots de 20 animaux chacun : • . Lot I : Témoins recevant 40 ml/kg d'eau déminéralisée; • . Lot II : Traités recevant 38,88 mg de Mg2+/kg sous forme de MgCl2, sous un volume de 40 ml/kg d'eau déminéralisée; • . Lot III : Traités recevant l'association "MgCl2 + acide malique" à la dose de 38,88 mg de Mg2+/kg sous forme de MgCl2 + 408 mg d'acide malique/kg, sous un volume de 40 ml/kg d'eau déminéralisée (pH ajusté à 5), ce qui correspond à une concentration en magnésium CMg = 0,04 mol.dm-3 et à une concentration de (DL)-malate CDLM = 0,076 mol.dm-3.
• a/ - Avant traitement : "t - 16 h" à "t" . Recueil des urines et mesure du volume. . Mesure de la consommation hydrique/15 h (les animaux étant privés d'eau de boisson 1 h avant l'administration des traitements). • b/ - Traitement : "t" . Pesée des animaux. . Administration des traitements, voie orale, par tubage oesophagien. • c/ - Après traitement : "t" à "t + 24 h" • c.1. Exploration urinaire : . […]

[3] = Potentiometric titration, protonation constants of the ligand ([…]); format: physicochemical; conditions: proton-malonate, aqueous solution, 37°C
Method: La méthode potentiométrique associée aux techniques informatiques a été utilisée pour cette étude. Les constantes de protonation du ligand, utilisées par la suite comme références, ont été calculées au moyen d'un programme informatique ([…]) à partir de données expérimentales provenant de titrages réalisés en solution aqueuse à 37°C et sous atmosphère d'azote.
(§1) A partir des données expérimentales des titrages, le programme […] calcule les constantes par la méthode des moindres carrés. Parmi les différentes combinaisons de complexes possibles, seules sont retenues celles pour lesquelles les critères numériques (notamment la somme des carrés des résidus) sont convenables. Le meilleur ensemble est finalement choisi d'après le tracé des courbes de formation simulées au moyen d'un troisième programme informatique (PSEUDOPLOT) : c'est celui qui permet d'obtenir la meilleure coïncidence entre courbes expérimentale (figure 2) et simulée (figure 3).

[4] = Potentiometric titration, formation constants of calcium-ligand complexes; format: physicochemical; conditions: calcium-malonate, complexe ML (charge 0); 37°C
Excerpt: Trois cas possibles a priori ont été effectivement rencontrés : • i) si aucune complexation n'est constatée dans les conditions expérimentales précisées plus haut, c'est à dire si le degré de complexation reste nul sur tout le domaine de concentrations en ligand examiné, aucune espèce complexe indépendante ne peut exister dans le fluide gastro-intestinal. Ceci ne signifie pas que les ligands envisagés ne puissent pas coordonner le magnésium à des concentrations beaucoup plus élevées, mais cette possibilité se rapportant à des conditions extra-physiologiques ne présente pas d'intérêt dans le cadre de l'invention. • ii) si l'ensemble de complexes sélectionné d'après les critères ci-dessus n'est constitué que d'espèces ionisées, il est impossible à ces dernières de se dissoudre dans la membrane phospholipidique; les ligands correspondants ne peuvent donc être utilisés comme vecteurs pour l'absorption gastro-intestinale du magnésium. • iii) si l'ensemble retenu contient une ou plusieurs espèces neutres, les ligands correspondants peuvent être a priori des vecteurs efficaces pour l'absorption du magnésium par les membranes séparant le biofluide d'un biofluide voisin. Leur efficacité dépendra toutefois de la proportion de ces espèces neutres dans les conditions thérapeutiques. […]

[5] = Potentiometric titration, formation constants of magnesium-ligand complexes ([…], ZAPAPLOT, PSEUDOPLOT); format: physicochemical; conditions: magnésium-malonate, 37°C
Excerpt: La complexation dans chaque système magnésium-ligand a ensuite été étudiée à partir de plusieurs titrages en solution aqueuse du ligand en présence de magnésium, pour différents rapports de concentrations métal-ligand correspondant à l'éventail le plus large possible de conditions thérapeutiques. Ces dosages se traduisent graphiquement par le tracé des courbes de protonation s = f ( -log[H] ), où s est le nombre moyen de protons liés au ligand. Ce type de courbes permet de visualiser la complexation. Par exemple, sur la figure 1, relative au système magnésium-malonate, on a représenté la courbe de protonation de référence du ligand par un trait plein et matérialisé les points expérimentaux des titrages du ligand en présence de magnésium par les symboles +, x, , □, ◁ dans l'ordre des rapports de concentrations métal/ligand croissants. On remarque deux zones de pH différentes : - l'une, de pH 2 à 3, pour laquelle les points se superposent à la courbe de protonation de référence, ce qui dénote une absence totale de complexation, - l'autre, de pH 3 à 7, pour laquelle les points sont décalés vers la gauche par rapport à la protonation de référence, c'est-à-dire vers des pH plus acides. Il y a donc une libération d'ions H+ en solution due à la complexation des ions Mg2+ par le malonate.
Cette complexation est confirmée par le tracé de la courbe de formation expérimentale p = f ( -log [L] ) au moyen d'un autre programme (ZAPAPLOT) où p est le nombre moyen de ligands liés au métal (représenté par le degré de formation DF à la figure 2). L'allure de cette courbe donne une idée de la forme sous laquelle le ligand intervient dans les complexes formés et permet d'estimer la valeur de leurs constantes de formation.
as §1

[6] = coefficient d'utilisation digestive

[Cl-].[Cl-].[Mg+2] [Lot II, MgCl2]
C. abs. ([1]; coefficient d'absorption): 30,19 | C.u.d. [1, 6]: 66,89 | C.r. ([1]; coefficient de rétention): 43,78 | MgF/24 h ([1]; faecal magnesium, oral 38,88 mg de Mg2+/kg): 2,003 mg/100 g de rat | MgU/24 h ([1]; urinary magnesium, oral 38,88 mg de Mg2+/kg): 1,873 mg/100 g de rat | C. abs. ([2]; coefficient d'absorption): 38,948 | C.u.d. [2, 6]: 73,617 | C.r. ([2]; coefficient de rétention): 50,083

O=C(O)CC(=O)O [MLO, malonate]
log β ([3]; complexe LH2): 7,815 | log β ([3]; complexe LH): 5,235 | log β [4]: 1,511 | log β ([5]; complexe ML3): 5,266 | log β ([5]; complexe ML (charge 0)): 2,064 | log β ([5]; complexe MLH-1): 6,326 | log β ([5]; complexe MLH): 5,524
